Reference: paper PMC11808397, “Development of selective nanomolar cyclic peptide ligands as GBA1 enzyme stabilisers” (RSC Chemical Biology, 2025)
Positions of bridges follow the written chain, without caps; N, C: chain ends. Non-standard residues stand in square brackets, D forms with d. Residues, ends and D or L forms follow the SMILES beside them.

Key:
[1] = biological target: T1, recombinant human GBA1 (rhGBA1, Cerezyme) (Homo sapiens, UniProt P04062, R534H); assay: rhGBA1 Ki / kinetic studies with varied 4-MU substrate; format: biochemical; conditions: 4MU substrate 0.05-5 mM, no pre-incubation, mean ± SD from 3 technical triplicates
T1 construct: purchased Cerezyme
T1 sequence (P04062 40-536 R534H): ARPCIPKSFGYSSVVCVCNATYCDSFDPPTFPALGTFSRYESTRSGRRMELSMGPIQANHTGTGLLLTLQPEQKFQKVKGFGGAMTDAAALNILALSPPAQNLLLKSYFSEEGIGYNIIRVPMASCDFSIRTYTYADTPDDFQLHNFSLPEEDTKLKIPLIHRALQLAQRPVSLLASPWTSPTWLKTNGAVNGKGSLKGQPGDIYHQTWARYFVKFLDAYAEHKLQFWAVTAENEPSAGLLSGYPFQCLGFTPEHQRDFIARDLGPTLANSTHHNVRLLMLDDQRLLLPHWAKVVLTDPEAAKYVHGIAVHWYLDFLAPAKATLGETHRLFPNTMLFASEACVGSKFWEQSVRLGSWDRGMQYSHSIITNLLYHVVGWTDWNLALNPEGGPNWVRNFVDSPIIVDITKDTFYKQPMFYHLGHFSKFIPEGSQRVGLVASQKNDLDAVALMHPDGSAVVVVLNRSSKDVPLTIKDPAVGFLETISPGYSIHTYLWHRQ
Experimental: Based on the pull-down validation, a set of eight cyclic peptides (L1, L2, L4, L6, D1, D8, D12 and D13) were identified, synthesized, and evaluated for their inhibitory potency against recombinant human GBA1 (rhGBA1, Cerezyme®) and their selectivity over human β-glucosidases GBA2 and GBA3. Half-maximum inhibitory concentration (IC50) values for β-glucosidases were determined in vitro by measuring hydrolysis of 4-methylumbelliferyl-β-D-glucopyranoside (4-MU-β-D-Glu) fluorogenic substrate.
(§1) Selective Cyclic Peptide Ligands as GBA1 Stabilizers Katzy et al.
Figure S4. Inhibitory constant (Ki) values using increasing concentrations of 4-MU-beta-glucoside as fluorogenic substrate. Enzyme activity (nmol h-1 mg-1) versus MU substrate concentrations is plotted (See Table 1 for Ki values) for inhibitors L2, L4, L6, D1, D8, and D12, and corresponding Lineweaver Burk plots are shown on the right.
(§2) (1 picture or pasted object on this page, not shown here)
GBA1 Ki values were determined using the same incubation times and buffers as described above following a previously described protocol.6 4MU-β-D-glucopyranoside concentration was varied […]
between 0.05 mM and 5 mM. […]
2.8. Thermostability assays in rhGBA (Cerezyme)
Varying concentrations of peptides were incubated with 1 µM rhGBA1 in 20 mM HEPES pH 7.0 with 100 mM NaCl, with a final DMSO concentration of 0.5 %, for 2 hours at room temperature. Melting

[2] = test system: Human dermal fibroblasts; assay: Toxicity / morphology of human dermal fibroblasts; format: cell-based; conditions: 3 hours, peptide concentrations above 10 μM (10 and 100 μM)
Experimental: We further investigated GBA1 inhibition in cells. Human dermal fibroblasts were initially incubated with peptide concentrations ranging from 0.1 μM (from 0.001 μM for L4, D1 and D12) to 100 μM of each cyclic peptide for […]. […] To further confirm the inability of these peptides to cross the cell membrane, we conducted in situ competitive activity-based protein profiling (cABPP) experiments using RAW 264.7 monocyte/macrophage-like cells. […] RAW 264.7 cells were then treated with increasing concentrations of cyclic peptides (0, 0.1, 1, 10, and 100 μM) for 4 hours, followed by exposure to a cell-penetrant Bodipy red broad spectrum GBA activity-based probe (ABP), JJB75[58] at 10 nM for 2 hours (Fig. S5 for chemical structures, ESI ^†). […] This cABPP experiment further confirms that the peptides are unable to cross the cell membrane (Fig. S6, ESI ^†).

[3] = biological target: T1, recombinant human GBA1 (rhGBA1, Cerezyme); assay: Thermostability of rhGBA1, label-free differential scanning fluorimetry (Tycho NT.6); format: binding; conditions: rhGBA1 at 1 μM, 20 mM HEPES pH 7.0, 100 mM NaCl, 0.5% DMSO, 2 h room temperature; N. D. = not determined due to a lack of stabilisation effect
Experimental: Samples were incubated at room temperature for 2
hours before measurement in the Tycho NT6.
curves were determined in triplicate using the Tycho NT.6 (NanoTemper), according to manufacturer

[4] = Intrinsic stability of cyclic peptides in plasma; format: in vitro ADME; conditions: 0.1 μM in human plasma, 2 h at 37°C, then rhGBA1 10 nM 30 min, 4-MU activity read-out; n=3, technical duplicates
Experimental: Specifically, high concentrations of all peptides (10–1 μM) led to enzyme binding but also GBA1 inhibition after short incubations (0 to 30 minutes). […] To discard potential degradation of D8 and D12 during plasma experiments, the peptides were incubated in plasma at 0.1 μM for 2 hours, followed by the addition of rhGBA1 to measure its activity. This was compared to controls where D8 and D12 were added to plasma and directly tested for GBA1 activity.
as §1
Figure S10. Cerezyme (10 nM) stability in McIlvaine buffer pH 5.2 or in plasma of a healthy individual. GBA1 activity measured in n=3 replicates, in technical duplicates.
Figure S11. Intrinsic compounds stability of cyclic peptides D8 and D12 (0.1 µM) in plasma. rhGBA1 (10 nM) was added to compounds pre-incubated in plasma for 2h at 37°C or readily dissolved in DMSO, and incubated for 30 min, after which 4-MU activity was measured. Error ranges depict standard deviations from n=3 replicates, measured in technical duplicates.
Table S1. IC50 values for GBA1 inhibition in fibroblast lysates. Cells were treated with the peptides at increasing concentrations for 16 h, washed with PBS and homogenized. Reported values are mean ± standard deviation from 3 technical triplicates. N.D.: not determined.
Peptide GBA1 in fibroblast lysates
as §2

Ki [1]	EC50 [3]	Compound	toxicity to the cells (morphology) [2]	peptide stability in plasma (inhibitory activity after pre-incubation) [4]
42 ± 7 nM	2000 ± 500 nM	CC[C@H](C)[C@H](NC(=O)[C@H](CCCNC(=N)N)NC(=O)[C@@H]1CSCC(=O)N[C@@H](Cc2ccc(O)cc2)C(=O)N[C@@H](C)C(=O)N[C@@H](Cc2ccc(O)cc2)C(=O)N[C@@H](Cc2c[nH]c3ccccc23)C(=O)N[C@@H](Cc2c[nH]c3ccccc23)C(=O)N[C@@H](CC(C)C)C(=O)N1)C(=O)N1CCC[C@H]1C(=O)N[C@@H](Cc1c[nH]c2ccccc12)C(=O)N[C@@H](CC(C)C)C(=O)N[C@@H](CO)C(=O)N[C@H](C(N)=O)C(C)C [L2] ({CH2CO}-YAYWWLCRIPWLSV-NH2; thioether N-7)		
1340 ± 203 nM		CC[C@H](C)[C@@H]1NC(=O)[C@H](Cc2ccc(O)cc2)NC(=O)CSC[C@@H](C(N)=O)NC(=O)[C@H](Cc2c[nH]c3ccccc23)NC(=O)[C@H](CCC(N)=O)NC(=O)[C@H]([C@@H](C)CC)NC(=O)[C@H]([C@@H](C)CC)NC(=O)[C@@H]2CCCN2C(=O)[C@H](C(C)C)NC(=O)[C@H](Cc2ccc(O)cc2)NC(=O)[C@H](Cc2c[nH]c3ccccc23)NC(=O)[C@H](CO)NC1=O [L6] ({CH2CO}-YISWYVPIIQWC-NH2; thioether N-12)		
2 ± 1 nM	2600 ± 1100 nM	CC(C)C[C@@H]1NC(=O)CNC(=O)[C@H](Cc2ccccc2)NC(=O)[C@H](CC(C)C)NC(=O)[C@@H]2CCCN2C(=O)[C@H](Cc2ccc(O)cc2)NC(=O)CSC[C@@H](C(=O)N2CCC[C@H]2C(=O)N[C@@H](CC(N)=O)C(=O)N[C@@H](Cc2c[nH]c3ccccc23)C(=O)N[C@@H](Cc2ccccc2)C(=O)N2CCC[C@H]2C(=O)N[C@@H](Cc2ccc(O)cc2)C(=O)N[C@@H](CCC(N)=O)C(=O)N[C@@H](CS)C(N)=O)NC(=O)[C@H](CO)NC(=O)[C@H](Cc2ccccc2)NC1=O [L4] ({CH2CO}-YPLFGLFSCPNWFPYQC-NH2; thioether N-9)		

Further lines, the molecule ahead of its results:

Compound	Ki [1]	EC50 [3]	toxicity to the cells (morphology) [2]	peptide stability in plasma (inhibitory activity after pre-incubation) [4]
CC(C)C[C@H](NC(=O)[C@@H](NC(=O)[C@H](CCCNC(=N)N)NC(=O)[C@@H]1CSCC(=O)N[C@H](Cc2ccc(O)cc2)C(=O)N[C@@H]([C@@H](C)O)C(=O)N2CCC[C@H]2C(=O)NCC(=O)N[C@@H](Cc2ccc(O)cc2)C(=O)N[C@@H](C(C)C)C(=O)N[C@@H](Cc2ccc(O)cc2)C(=O)N1)C(C)C)C(=O)N[C@@H](CCCCN)C(=O)N[C@@H](Cc1ccc(O)cc1)C(=O)N[C@@H](CS)C(N)=O [D8] ({CH2CO}-[dY]TPGYVYCRVLKYC-NH2; thioether N-8)	13 ± 4 nM	2200 ± 500 nM	still attached and otherwise looked healthy	retained their inhibitory activity against rhGBA1
CC[C@H](C)[C@H](NC(=O)[C@H](CC(C)C)NC(=O)[C@H](Cc1ccc(O)cc1)NC(=O)[C@H](Cc1ccc(O)cc1)NC(=O)[C@@H]1CSCC(=O)N[C@H](Cc2ccc(O)cc2)C(=O)N[C@@H](CCCNC(=N)N)C(=O)N[C@@H](C(C)C)C(=O)N1)C(=O)N[C@H](C(=O)N[C@H](C(=O)N[C@@H](CC(C)C)C(=O)N[C@@H](CC(=O)O)C(=O)N[C@@H](CS)C(N)=O)C(C)C)[C@@H](C)O [D1] ({CH2CO}-[dY]RVCYYLITVLDC-NH2; thioether N-4)	0.9 ± 0.1 nM			
CC(C)C[C@@H]1NC(=O)CNC(=O)[C@H](CC(C)C)NC(=O)[C@@H](Cc2ccc(O)cc2)NC(=O)CSC[C@@H](C(N)=O)NC(=O)[C@H](CO)NC(=O)[C@H](CCCCN)NC(=O)[C@H](CC(C)C)NC(=O)[C@H](Cc2ccccc2)NC(=O)[C@H](CCCNC(=N)N)NC(=O)[C@H](Cc2ccc(O)cc2)NC(=O)[C@H](Cc2c[nH]c3ccccc23)NC1=O [D12] ({CH2CO}-[dY]LGLWYRFLKSC-NH2; thioether N-12)	1 ± 0.4 nM	1900 ± 400 nM	still attached and otherwise looked healthy	retained their inhibitory activity against rhGBA1
